Test results reported in ChEMBL document CHEMBL2390897, “3-Anhydro-6-hydroxy-ophiobolin A, a new sesterterpene inhibiting the growth of methicillin-resistant Staphylococcus aureus and inducing the cell death by apoptosis on K562, from the phytopathogenic fungus Bipolaris oryzae” (Bioorg Med Chem Lett, 2013).
In brackets after ≈: the same amount, converted by molar mass. Activity calls are given as the source filed them. No cut-off for these calls is given here.

Assays:
Candida albicans = experiment: Antimicrobial activity against Candida albicans SC5314; format: functional
Staphylococcus aureus [1] = experiment: Antimicrobial activity against methicillin-resistant Staphylococcus aureus; format: functional
HepG2 = experiment: Cytotoxicity against human HepG2 cells after 48 hrs by MTT assay; format: functional, cell-based; details: HepG2, 48 h
Pseudomonas aeruginosa = experiment: Antimicrobial activity against Pseudomonas aeruginosa PAO1; format: functional
Staphylococcus aureus [2] = experiment: Antimicrobial activity against Staphylococcus aureus ATCC 6538; format: functional
K562 [3] = experiment: Cytotoxicity against human K562 cells after 48 hrs by MTT assay; format: functional, cell-based; details: K562, 48 h
Bacillus subtilis = experiment: Antimicrobial activity against Bacillus subtilis ATCC 6051; format: functional
K562 [4] = experiment: Induction of apoptosis in human K562 cells assessed as cell survival at 0.5 ug/ml after 5 hrs using annexin-V-FITC and propidium iodide staining by flow cytometry (reference value: 97.96%); format: functional; details: K562, 5 h, read-out: Activity
K562 [5] = experiment: Induction of apoptosis in human K562 cells assessed as viable cells at 2 ug/ml after 5 hrs using annexin-V-FITC and propidium iodide staining by flow cytometry (reference value: 99.86%); format: functional; details: K562, 5 h, read-out: Activity
K562 [6] = experiment: Induction of apoptosis in human K562 cells assessed as cell survival at 1 ug/ml after 1 hr using annexin-V-FITC and propidium iodide staining by flow cytometry (reference value: 97.89%); format: functional; details: K562, 1 h, read-out: Activity
K562 [7] = experiment: Induction of apoptosis in human K562 cells assessed as viable cells at 2 ug/ml using annexin-V-FITC and propidium iodide staining by flow cytometry (reference value: 93.69%); format: functional, cell-based; details: TDE = time-dependent effect
K562 [8] = experiment: Induction of apoptosis in human K562 cells assessed as cell survival at 1 ug/ml after 6 hrs using annexin-V-FITC and propidium iodide staining by flow cytometry (reference value: 97.89%); format: functional; details: K562, 6 h, read-out: Activity
K562 [9] = experiment: Induction of apoptosis in human K562 cells assessed as cell survival at 2 ug/ml after 5 hrs using annexin-V-FITC and propidium iodide staining by flow cytometry (reference value: 97.96%); format: functional; details: K562, 5 h, read-out: Activity
K562 [10] = experiment: Induction of apoptosis in human K562 cells assessed as viable cells at 0.5 ug/ml after 5 hrs using annexin-V-FITC and propidium iodide staining by flow cytometry (reference value: 99.86%); format: functional; details: K562, 5 h, read-out: Activity
K562 [11] = experiment: Induction of apoptosis in human K562 cells assessed as down regulation of c-Myc at 2 ug/ml after 3 hrs by Western blot analysis; format: functional, cell-based
K562 [12] = experiment: Induction of apoptosis in human K562 cells assessed as […] of Bcl-2 at 2 ug/ml after 4 hrs by Western blot analysis; format: functional, cell-based
K562 [13] = experiment: Induction of apoptosis in human K562 cells assessed as cell survival at 4 ug/ml after 5 hrs using annexin-V-FITC and propidium iodide staining by flow cytometry (reference value: 97.96%); format: functional; details: K562, 5 h, read-out: Activity
K562 [14] = experiment: Induction of apoptosis in human K562 cells assessed as viable cells at 1 ug/ml after 5 hrs using annexin-V-FITC and propidium iodide staining by flow cytometry (reference value: 99.86%); format: functional; details: K562, 5 h, read-out: Activity
K562 [15] = experiment: Induction of apoptosis in human K562 cells assessed as viable cells at 0.75 ug/ml after 5 hrs using annexin-V-FITC and propidium iodide staining by flow cytometry (reference value: 99.86%); format: functional; details: K562, 5 h, read-out: Activity
K562 [16] = experiment: Induction of apoptosis in human K562 cells assessed as viable cells at 2 ug/ml after 3 hrs using annexin-V-FITC and propidium iodide staining by flow cytometry (reference value: 93.69%); format: functional; details: K562, 3 h, read-out: Activity
K562 [17] = experiment: Induction of apoptosis in human K562 cells assessed as cell survival at 1 ug/ml after 5 hrs using annexin-V-FITC and propidium iodide staining by flow cytometry (reference value: 97.96%); format: functional; details: K562, 5 h, read-out: Activity
K562 [18] = experiment: Induction of apoptosis in human K562 cells assessed as cell survival at 1 ug/ml after 2 hrs using annexin-V-FITC and propidium iodide staining by flow cytometry (reference value: 97.89%); format: functional; details: K562, 2 h, read-out: Activity
K562 [19] = experiment: Induction of apoptosis in human K562 cells assessed as effect on Bcl-XL expression at 2 ug/ml after 4 hrs by Western blot analysis; format: functional, cell-based
K562 [20] = experiment: Induction of apoptosis in human K562 cells assessed as cell survival at 0.25 ug/ml after 5 hrs using annexin-V-FITC and propidium iodide staining by flow cytometry (reference value: 97.96%); format: functional; details: K562, 5 h, read-out: Activity
K562 [21] = experiment: Induction of apoptosis in human K562 cells assessed as cell survival at 0.75 ug/ml after 5 hrs using annexin-V-FITC and propidium iodide staining by flow cytometry (reference value: 97.96%); format: functional; details: K562, 5 h, read-out: Activity
K562 [22] = experiment: Induction of apoptosis in human K562 cells assessed as cell survival at 1 ug/ml after 8 hrs using annexin-V-FITC and propidium iodide staining by flow cytometry (reference value: 97.89%); format: functional; details: K562, 8 h, read-out: Activity
K562 [23] = experiment: Induction of apoptosis in human K562 cells assessed as cell survival at 1 ug/ml after 4 hrs using annexin-V-FITC and propidium iodide staining by flow cytometry (reference value: 97.89%); format: functional; details: K562, 4 h, read-out: Activity
K562 [24] = experiment: Induction of apoptosis in human K562 cells assessed as viable cells at 4 ug/ml after 5 hrs using annexin-V-FITC and propidium iodide staining by flow cytometry (reference value: 99.86%); format: functional; details: K562, 5 h, read-out: Activity
K562 [25] = experiment: Induction of apoptosis in human K562 cells assessed as viable cells after 3 hrs using annexin-V-FITC and propidium iodide staining by flow cytometry (reference value: 93.69%); format: functional, cell-based

## CC(C)=C[C@H]1C[C@H](C)[C@]2(CC[C@]3(C)C[C@@H]4C(C)=CC(=O)[C@@H]4/C(C=O)=C\C[C@H]32)O1
Candida albicans
  MIC: > 100 µg/mL
Staphylococcus aureus [1]
  MIC: > 100 µg/mL
HepG2
  IC50: 55.7 µM
Pseudomonas aeruginosa
  MIC: > 100 µg/mL
Staphylococcus aureus [2]
  MIC: > 100 µg/mL
K562 [3]
  IC50: 39.5 µM
Bacillus subtilis
  MIC: > 100 µg/mL

## CC(C)=C[C@H]1C[C@H](C)[C@]2(CC[C@]3(C)C[C@@H]4C(C)=CC(=O)[C@]4(O)/C(C=O)=C\C[C@H]32)O1
K562 [4]
  viability at 0.5 µg/mL: 88.3%
K562 [5]
  viability at 2 µg/mL: 25.9%
K562 [6]
  viability at 1 µg/mL: 91.3%
Candida albicans
  MIC: 50 µg/mL (≈ 125 µM)
K562 [7]
  Activity: tde
K562 [8]
  viability at 1 µg/mL: 27.5%
K562 [9]
  viability at 2 µg/mL: 26.9%
K562 [10]
  viability at 0.5 µg/mL: 87.5%
K562 [11]
  Activity: Active
K562 [12]
  Activity: Active
K562 [13]
  viability at 4 µg/mL: 2.45%
K562 [14]
  viability at 1 µg/mL: 49.6%
K562 [15]
  viability at 0.75 µg/mL: 62.8%
K562 [16]
  viability at 2 µg/mL: 32.6%
Staphylococcus aureus [1]
  MIC: 12.5 µg/mL (≈ 31.4 µM)
K562 [17]
  viability at 1 µg/mL: 50.2%
HepG2
  IC50: 6.49 µM
Pseudomonas aeruginosa
  MIC: > 100 µg/mL
Staphylococcus aureus [2]
  MIC: 12.5 µg/mL (≈ 31.4 µM)
K562 [3]
  IC50: 4.06 µM
K562 [18]
  viability at 1 µg/mL: 69.7%
Bacillus subtilis
  MIC: 12.5 µg/mL (≈ 31.4 µM)
K562 [19]
  Activity: inactive
K562 [20]
  viability at 0.25 µg/mL: 96.6%
K562 [21]
  viability at 0.75 µg/mL: 61.5%
K562 [22]
  viability at 1 µg/mL: 5.86%
K562 [23]
  viability at 1 µg/mL: 56%
K562 [24]
  viability at 4 µg/mL: 1.78%
K562 [25]
  Activity: Dose-dependent effect

## O=C(O)c1cn(C2CC2)c2cc(N3CCNCC3)c(F)cc2c1=O [CIPROFLOXACIN]
Pseudomonas aeruginosa
  MIC: 1 µg/mL (≈ 3.02 µM)

## CC(C)=C[C@H]1C[C@H](C)[C@]2(CC[C@]3(C)C[C@@H]4C(C)=CC(=O)[C@H]4/C(C=O)=C\C[C@H]32)O1 [3-ANHYDRO-6-EPI-OPHIOBOLIN A]
Candida albicans
  MIC: > 100 µg/mL
Staphylococcus aureus [1]
  MIC: > 100 µg/mL
HepG2
  IC50: 47.1 µM
Pseudomonas aeruginosa
  MIC: > 100 µg/mL
Staphylococcus aureus [2]
  MIC: > 100 µg/mL
K562 [3]
  IC50: 35.6 µM
Bacillus subtilis
  MIC: > 100 µg/mL

## COc1cc([C@@H]2c3cc4c(cc3[C@@H](O[C@@H]3O[C@@H]5CO[C@@H](C)O[C@H]5[C@H](O)[C@H]3O)[C@H]3COC(=O)[C@H]23)OCO4)cc(OC)c1O [ETOPOSIDE]
HepG2
  IC50: 6.41 µM

## CC(=O)N1CCN(c2ccc(OCC3COC(Cn4ccnc4)(c4ccc(Cl)cc4Cl)O3)cc2)CC1 (configuration not stated) [KETOCONAZOLE]
Candida albicans
  MIC: 0.02 µg/mL (≈ 0.0376 µM)

## CN[C@H](CC(C)C)C(=O)N[C@H]1C(=O)N[C@@H](CC(N)=O)C(=O)N[C@H]2C(=O)N[C@H]3C(=O)N[C@H](C(=O)N[C@H](C(=O)O)c4cc(O)cc(O)c4-c4cc3ccc4O)[C@H](O)c3ccc(c(Cl)c3)Oc3cc2cc(c3O[C@@H]2O[C@H](CO)[C@@H](O)[C@H](O)[C@H]2O[C@H]2C[C@](C)(N)[C@H](O)[C@H](C)O2)Oc2ccc(cc2Cl)[C@H]1O [VANCOMYCIN]
Bacillus subtilis
  MIC: 0.5 µg/mL (≈ 0.345 µM)
